Experimental data published in article PMC11413503, “SCR‐7952, a highly selective MAT2A inhibitor, demonstrates synergistic antitumor activities in combination with the S‐adenosylmethionine‐competitive or the methylthioadenosine‐cooperative protein arginine methyltransferase 5 inhibitors in methylthioadenosine phosphorylase‐deleted tumors” (MedComm, 2024).
“And” between values parts separate entries of the source, which are not always exact repeats. Equal values may be shown once. Read-outs that look alike come from different tables or passages of the source.

Columns and labels:
UGT1A1 = system: UGT1A1; set-up: method as in PMID 16765731; details: off-target activity of AG-270; cited from earlier work
[1] = Plasma pharmacokinetics after multiple administration in xenograft mice; format: in vivo; details: AG-270 200 mg/kg
MIA PaCa-2 = test: Proliferation assay (CellTiter-Glo); format: cell-based; details: Homo sapiens, MIA PaCa-2, 144 h; MTAP-deleted, 6-day; read-out: IC50, anti-proliferation MIA PaCa-2
Method: (§1) HCT116 colon carcinoma parental (WT) cells with MTAP ^−/− isogenic clone were established by KYinno Biotechnology Co., Ltd. (Beijing, China). A549, MIA PaCa‐2, and WI‐38 cell lines were obtained from ATCC. NCI‐H838 was obtained from Cobioer Biosciences. HCT116 WT and KO MTAP cells were cultured in McCoy's 5A media containing 10% FBS. A549 cells were cultured in DMEM media containing 10% FBS. MIA PaCa‐2 cells were cultured in DMEM media containing 10% FBS and 2.5% horse serum. NCI‐H838 cells were cultured in PRMI 1640 media containing 10% FBS. WI‐38 cells were cultured in EMEM media containing 10% FBS.
(§2) Cells were plated in 96‐well cell culture plates and allowed to attach overnight at 37°C in 5% CO2. Compounds diluted in DMSO were added to cells in a dose–response format for 6 days. The final concentration of DMSO was 0.1% in media. Cell proliferation was measured using CellTiter‐Glo Cell Viability Assay (Promega). The IC50 values were calculated using the GraphPad Prism 9. Drug combination effects were analyzed using Combenefit software.[45]

A549 = test: Proliferation assay (CellTiter-Glo); format: cell-based; details: Homo sapiens, A549, 144 h; MTAP-deleted, 6-day; read-out: IC50, anti-proliferation A549
Method: as §1, §2

HCT116 WT cells = test: Proliferation assay (CellTiter-Glo); format: cell-based; details: Homo sapiens, HCT-116, 144 h; 6-day treatment; read-out: IC50, anti-proliferation HCT116 WT
Method: as §1, §2

HCT116 MTAP−/− cells [2] = test: Proliferation assay (CellTiter-Glo); format: cell-based; details: Homo sapiens, HCT-116, 144 h; 6-day treatment; read-out: IC50, anti-proliferation HCT116 MTAP−/−
Method: as §1, §2

NCI-H838 = test: Proliferation assay (CellTiter-Glo); format: cell-based; details: Homo sapiens, NCI-H838, 144 h; MTAP-deleted, 6-day; read-out: IC50, anti-proliferation NCI-H838
Method: as §1, §2

[3] = system: WI-38 (human fetal lung fibroblast cells); test: Proliferation assay (CellTiter-Glo); format: cell-based; details: Homo sapiens, WI-38, MTAP WT; read-out: IC50, anti-proliferation WI-38
Method: as §1, §2

HCT116 MTAP−/− cells [4] = test: Intracellular SAM inhibition assay; format: cell-based; details: Homo sapiens, HCT-116, 6 h, read-out: IC50, cellular SAM levels
Method: MAT2A inhibition in the cellular environment was monitored by measurement of the abundance of its product SAM in HCT116 MTAP ^−/− cells. HCT116 MTAP ^−/− cells were plated in 96‐well cell culture plates at 50,000 cells per well and allowed to attach overnight at 37°C in 5% CO2. Compounds were added in a dose–response format to generate a 10‐point dose–response curve. Doses were started at a 10 µM top concentration with 1:5 serial dilution. After 6 h of incubation, the medium was removed and cells were extracted with 50% methanol containing 1 M acetic acid for SAM metabolite measurement by UPLC‐MS/MS.
The standard SAM solution was prepared in a surrogate matrix of 50% methanol containing 1 M acetic acid with a concentration range of 3–1000 ng/mL. The quality control sample was prepared in the same surrogate matrix. SAM‐d 3 was used as the internal standard (IS). A Waters UPLC system coupled with a SCIEX Triple Quad™ 6500^+ mass spectrometer […] was used to analyze the samples. Samples were separated on an ACQUITY UPLC® BEH amide column (2.1 × 50 mm, 1.7 µm). The mobile phase consisted of 5% acetonitrile containing 5 mM NH4OAc and 1% (v/v) formic acid (A) and 95% acetonitrile containing 5 mM NH4OAc and 1% (v/v) formic acid (B). […] SAM and SAM‐d 3 were detected with multiple‐reaction monitoring of a mass transition pair at m/z 399.2/250.2 and […], respectively.

[5] = Plasma bilirubin in mice after oral treatment; format: in vivo; details: AG-270 200 mg/kg, 2 h after final dose
[6] = system: HCT116 MTAP−/− subcutaneous xenograft; test: Xenograft efficacy study, monotherapy; format: in vivo, mice; details: AG-270 200 mg/kg oral
Method: An efficacy study in an HCT116 MTAP ^−/− subcutaneous xenograft mouse model was performed to evaluate the antitumor effect of SCR‐7952, with once daily (q.d.) oral dosing of 0.25, 0.5, 1.0, or 3.0 mg/kg, respectively.
Nu/Nu female mice (6–12 weeks old; Beijing Vital River Laboratory Animal Technology Co., Ltd.) were used for in vivo xenograft studies. All experimental procedures involving animals and their care were in accordance with the State Council Regulations for Laboratory Animal Management (Enacted in 1988) and approved by the Institutional Animal Care and Use Committee of Jiangsu Simcere Pharmaceutical Co., Ltd. (IACUC; Approval No. AP‐056).
(§3) Subcutaneous injections of HCT116 MTAP ^−/− cells were performed (5 × 10^6 cells in 100 µL) into Nu/Nu female mice. Mice were observed daily for the development of tumors. Six days after tumor implantation, mice were randomly distributed into different groups. SCR‐7952, AG‐270, JNJ‐64619178, or vehicle (water with 5% N‐methylpyrrolidone and 10% solutol HS‐15) were daily administrated by oral gavage. Tumor volumes and body weights were recorded three times per week. Tumor volumes were measured in two dimensions using a caliper, and the volume was expressed in mm^3 using the formula: V = (L × W × W)/2, where V is tumor volume, L is tumor length (the longest tumor dimension), and W is tumor width (perpendicular to L). The tumor growth inhibition rate (TGI%) of each dosing group was calculated according to the following formula: %TGI = (1 − (V t(treatment group) − V 0(treatment group))/(V t(vehicle group) − V 0(vehicle group))) × 100%, where V t is average tumor volume of a dosing group on a specific day, V 0 is average tumor volume of a dosing group on the initial day. At the end of the study, plasma and tumor tissues were collected and stored at −80°C for further measurement.

MTAP−/− cancer cells = system: MTAP−/− cancer cells; set-up: method as in earlier work; details: read-out: IC50, antiproliferation on MTAP−/− cancer cells; cited from earlier work
[7] = system: MTAP-deleted squamous NSCLC; set-up: method as in NCT04794699; details: 3/4 patients, up to 50% circulating tumor DNA decrease; ref NCT04794699; cited from earlier work
MAT2A [8] = biological target: T1, MAT2A (Homo sapiens, UniProt P31153); set-up: method as in earlier work; details: read-out: IC50, inhibition of MAT2A activity; cited from earlier work
T1 construct: purchased Pharmaron 210405‐HWR‐20210429
T1 sequence (P31153 whole entry): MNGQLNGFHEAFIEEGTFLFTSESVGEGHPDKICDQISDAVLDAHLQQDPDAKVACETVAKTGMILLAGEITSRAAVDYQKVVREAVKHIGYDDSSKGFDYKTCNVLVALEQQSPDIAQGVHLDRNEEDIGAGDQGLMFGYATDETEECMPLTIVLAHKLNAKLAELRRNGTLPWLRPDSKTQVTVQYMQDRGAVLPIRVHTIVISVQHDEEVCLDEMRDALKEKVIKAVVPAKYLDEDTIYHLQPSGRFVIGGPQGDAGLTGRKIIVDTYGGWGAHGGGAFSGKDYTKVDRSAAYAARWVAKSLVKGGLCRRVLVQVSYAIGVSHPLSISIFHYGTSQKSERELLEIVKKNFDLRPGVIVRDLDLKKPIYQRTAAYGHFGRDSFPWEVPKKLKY

SDMA [9] = test: Immunoblot of SDMA (PRMT5-dependent mark); format: cell-based; details: 96 h, HCT116 MTAP−/− cells
FANCA = test: RT-PCR of FANCA and DI-containing transcripts; format: cell-based; details: 72 h
SDMA [10] = test: Tumor SDMA levels in combination xenograft study; format: in vivo, mice; details: JNJ-64619178 1.0 mg/kg alone
HCT116 MTAP−/− xenograft = test: Xenograft combination treatment study; format: in vivo, mice; details: JNJ-64619178 1.0 mg/kg alone
Method: as §3

Huh-7 cells = system: Huh-7 cells; set-up: method as in PMID 28553945; details: read-out: IC50, antiproliferative effect on Huh-7 cells; cited from earlier work
[11] = system: mixed-lineage leukemia-rearranged (MLLr) leukemia; set-up: method as in PMID 32456310; details: read-out: IC50, antiproliferation in MLLr leukemia; cited from earlier work
MAT2A [12] = biological target: T1, MAT2A; set-up: method as in PMID 28553945; details: chemical assay; cited from earlier work

## COc1ccc(-c2c(Nc3ccccn3)[nH]c3c(C4=CCCCC4)c(-c4ccccc4)nn3c2=O)cc1 [AG‐270, reference compound]
UGT1A1
  IC50: 1100 nM
[1]; calculated
  AUC0-24h free drug: 3.829 µg·h/mL
[1]; Nu/Nu, mouse, oral, plasma, HCT116 MTAP−/− xenograft mice, read-out: AUC0-24h total
  AUC(0-t): 383 µg·h/mL
MIA PaCa-2
  IC50: 935 nM
A549
  IC50: 646 nM
HCT116 WT cells
  IC50: 1220 nM
HCT116 MTAP−/− cells [2]
  IC50: 300 nM
NCI-H838
  IC50: 93.9 nM
[3]
  IC50: 1410 nM
HCT116 MTAP−/− cells [4]
  IC50: 5.8 nM
[5]
  effect on plasma total, direct and unconjugated bilirubin: remarkably increased
[6]
  TGI: 52.0%

## Nc1nc(=O)n(-c2ccccc2Cl)c2nc(C(F)(F)F)ccc12 [IDE397]
MTAP−/− cancer cells
  IC50: ~20 nM
[7]
  molecular responses: 75%
MAT2A [8]
  IC50: ~10 nM

## Nc1nc2cc(CC[C@H]3C[C@@H](n4ccc5c(N)ncnc54)[C@H](O)[C@@H]3O)ccc2cc1Br [JNJ‐64619178, reference compound]
SDMA [9]
  SDMA level (immunoblot): reduction of SDMA
FANCA
  expression of FANCA DI-containing transcripts: increase of FANCA DI‐containing transcripts
SDMA [10]
  tumor SDMA levels: remarkable reduction
HCT116 MTAP−/− xenograft
  TGI: 54.0%

## CN(C)CCc1nnc2cc(-c3ccccc3)c3cc(Cl)ccc3n12 [PF‐9366]
Huh-7 cells
  IC50: ~10000 nM and 10000 nM
[11]
  IC50: ~10000 nM
MAT2A [12]
  IC50: 420 nM
